According to patent publication US7968542B2, “Thiophene compounds and thrombopoietin receptor activators” (Nissan Chemical Industries, Ltd., priority 2005, dated 2011):

System: Human bone marrow CD34+ cells
Test: Megakaryocyte colony stimulating activity (megakaryocyte colony forming method)
Format: cell-based
Details: 11 days
Experimental: The action of the compounds of Synthetic Examples 1 to 43 of the present invention and Reference Synthetic Examples 29 and 30 on the proliferation, differentiation and maturation of megakaryocyte cells was measured by the megakaryocyte colony forming method using human bone marrow cells. Human bone marrow CD34^+ cells (Cambrex Bio Science Walkersville) were incubated on 2-well chamber slide for 11 days in a CO2 incubator (5% CO2, 37° C.) using MegaCult™-C (StemCell Technologies) containing 0.1% (v/v) of the compounds of Synthetic Examples dissolved in dimethyl sulfoxide. After dehydration and fixation, the cells were stained with an anti-glycoprotein IIb/IIIa antibody in accordance with the instruction by the manufacturer. The colonies consisting of at least 8 stained megakaryocyte cells in each well were counted under a microscope. The megakaryocyte colony counts in at least 2 wells were averaged.

C/C(=N\NC(=O)c1ccc(C(=O)O)cc1)c1csc(-c2ccc(Cl)c(Cl)c2)c1O [Reference Synthetic Ex. 29, reference compound]
Megakaryocyte colony count (drug concentration 0.1 μg/mL): 2
Megakaryocyte colony count (drug concentration 1 μg/mL): 31

C/C(=N\NC(=O)c1ccc(C(=O)O)s1)c1csc(-c2ccc(Cl)c(Cl)c2)c1O [Reference Synthetic Ex. 30, reference compound]
Megakaryocyte colony count (drug concentration 0.1 μg/mL): 12
Megakaryocyte colony count (drug concentration 0.3 μg/mL): 34
Megakaryocyte colony count (drug concentration 1 μg/mL): 87

CC(=NNC(=O)c1ccc(C(=O)N2CCN(C(C)C)CC2)s1)c1csc(-c2ccc(Cl)c(Cl)c2)c1O [Synthetic Ex. 1, 5-(4-isopropylpiperazine-1-carbonyl)thiophene-2-carboxylic acid {1-[5-(3,4-dichlorophenyl)-4-hydroxythiophen-3-yl]ethylidene}hydrazide]
Megakaryocyte colony count (drug concentration 1 μg/mL): 154

CC(=NNC(=O)c1ccc(C(=O)N2CCOCC2)s1)c1csc(-c2ccc(Cl)c(Cl)c2)c1O.[K] [Synthetic Ex. 2, 5-(morpholine-4-carbonyl)thiophene-2-carboxylic acid {1-[5-(3,4-dichlorophenyl)-4-hydroxythiophen-3-yl]ethylidene}hydrazide potassium salt]
Megakaryocyte colony count (drug concentration 1 μg/mL): 239

CCN(CC)C(=O)c1ccc(C(=O)NN=C(C)c2csc(-c3ccc(Cl)c(Cl)c3)c2O)s1.[K] [Synthetic Ex. 3, 5-{1-[5-(3,4-dichlorophenyl)-4-hydroxythiophen-3-yl]ethylidenehydrazinocarbonyl}thiophene-2-carboxylic acid diethylamide potassium salt]
Megakaryocyte colony count (drug concentration 1 μg/mL): 348

CC(=NNC(=O)c1ccc(C(=O)N2CCCC2)s1)c1csc(-c2ccc(Cl)c(Cl)c2)c1O.[K] [Synthetic Ex. 4, 5-(pyrrolidine-1-carbonyl)thiophene-2-carboxylic acid {1-[5-(3,4-dichlorophenyl)-4-hydroxythiophen-3-yl]ethylidene}hydrazide potassium salt]
Megakaryocyte colony count (drug concentration 0.1 μg/mL): 84
Megakaryocyte colony count (drug concentration 1 μg/mL): 148

CC(=NNC(=O)c1ccc(C(=O)N(C)C)s1)c1csc(-c2ccc(Cl)c(Cl)c2)c1O.[K] [Synthetic Ex. 5, 5-{1-[5-(3,4-dichlorophenyl)-4-hydroxythiophen-3-yl]ethylidenehydrazinocarbonyl}thiophene-2-carboxylic acid dimethylamide potassium salt]
Megakaryocyte colony count (drug concentration 1 μg/mL): 274

COCCNC(=O)c1ccc(C(=O)NN=C(C)c2csc(-c3ccc(Cl)c(Cl)c3)c2O)s1.[K] [Synthetic Ex. 6, 5-{1-[5-(3,4-dichlorophenyl)-4-hydroxythiophen-3-yl]ethylidenehydrazinocarbonyl}thiophene-2-carboxylic acid 2-methoxyethylamide potassium salt]
Megakaryocyte colony count (drug concentration 0.1 μg/mL): 115
Megakaryocyte colony count (drug concentration 1 μg/mL): 151

CCN(CC)C(=O)c1ccc(C(=O)NN=C(C)c2csc(-c3ccc(C(F)(F)F)cc3)c2O)s1 [Synthetic Ex. 8, 5-{1-[5-(4-trifluoromethylphenyl)-4-hydroxythiophen-3-yl]ethylidenehydrazinocarbonyl}thiophene-2-carboxylic acid diethylamide]
Megakaryocyte colony count (drug concentration 0.1 μg/mL): 147
Megakaryocyte colony count (drug concentration 1 μg/mL): 227

CC(=NNC(=O)c1ccc(C(=O)N2CCCC2)s1)c1csc(-c2ccc(C(F)(F)F)cc2)c1O.[K] [Synthetic Ex. 10, 5-(pyrrolidine-1-carbonyl)thiophene-2-carboxylic acid {1-[5-(4-trifluoromethylphenyl)-4-hydroxythiophen-3-yl]ethylidene}hydrazide potassium salt]
Megakaryocyte colony count (drug concentration 0.1 μg/mL): 105
Megakaryocyte colony count (drug concentration 1 μg/mL): 208

CC(=NNC(=O)c1ccc(C(=O)N(C)Cc2ccccn2)s1)c1csc(-c2ccc(C(F)(F)F)cc2)c1O.[K] [Synthetic Ex. 13, 5-{1-[5-(4-trifluoromethylphenyl)-4-hydroxythiophen-3-yl]ethylidenehydrazinocarbonyl}thiophene-2-carboxylic acid methyl-2-picolylamide potassium salt]
Megakaryocyte colony count (drug concentration 0.1 μg/mL): 61

CC(=NNC(=O)c1ccc(C(=O)NCc2cccnc2)s1)c1csc(-c2ccc(Br)cc2)c1O [Synthetic Ex. 17, 5-{1-[5-(4-bromophenyl)-4-hydroxythiophen-3-yl]ethylidenehydrazinocarbonyl}thiophene-2-carboxylic acid 3-picolylamide]
Megakaryocyte colony count (drug concentration 1 μg/mL): 146

CC(=NNC(=O)c1ccc(C(=O)NCc2ccncc2)s1)c1csc(-c2ccc(Br)cc2)c1O [Synthetic Ex. 18, 5-{1-[5-(4-bromophenyl)-4-hydroxythiophen-3-yl]ethylidenehydrazinocarbonyl]thiophene-2-carboxylic acid 4-picolylamide]
Megakaryocyte colony count (drug concentration 1 μg/mL): 125

CC(=NNC(=O)c1ccc(C(=O)NCc2ccco2)s1)c1csc(-c2ccc(Br)cc2)c1O [Synthetic Ex. 19, 5-{1-[5-(4-bromophenyl)-4-hydroxythiophen-3-yl]ethylidenehydrazinocarbonyl}thiophene-2-carboxylic acid furan-2-ylmethylamide]
Megakaryocyte colony count (drug concentration 1 μg/mL): 171

CNC(=O)c1ccc(C(=O)NN=C(C)c2csc(-c3ccc(Br)cc3)c2O)s1 [Synthetic Ex. 20, 5-{1-[5-(4-bromophenyl)-4-hydroxythiophen-3-yl]ethylidenehydrazinocarbonyl}thiophene-2-carboxylic acid methylamide]
Megakaryocyte colony count (drug concentration 1 μg/mL): 185

CC(=NNC(=O)c1ccc(C(=O)NC(C)C)s1)c1csc(-c2ccc(Br)cc2)c1O [Synthetic Ex. 21, 5-{1-[5-(4-bromophenyl)-4-hydroxythiophen-3-yl]ethylidenehydrazinocarbonyl}thiophene-2-carboxylic acid isopropylamide]
Megakaryocyte colony count (drug concentration 0.1 μg/mL): 85

C/C(=N\NC(=O)c1ccc(C(=O)NCc2ccccn2)s1)c1csc(-c2ccc(OC(F)(F)F)cc2)c1O [Synthetic Ex. 22]
Megakaryocyte colony count (drug concentration 0.1 μg/mL): 96

CC(=NNC(=O)c1ccc(C(=O)NC(C)C)s1)c1csc(-c2ccc(C(F)(F)F)cc2)c1O [Synthetic Ex. 23, 5-{1-[5-(4-trifluoromethylphenyl)-4-hydroxythiophen-3-yl]ethylidenehydrazinocarbonyl}thiophene-2-carboxylic acid isopropylamide]
Megakaryocyte colony count (drug concentration 1 μg/mL): 134

C/C(=N\NC(=O)c1ccc(C(=O)NCc2ccncc2)s1)c1csc(-c2ccc(Cl)cc2)c1O [Synthetic Ex. 24, 5-{1-5-[(4-chlorophenyl)-4-hydroxythiophen-3-yl]ethylidenehydrazinocarbonyl}thiophene-2-carboxylic acid 4-picolylamide]
Megakaryocyte colony count (drug concentration 1 μg/mL): 164

CC(=NNC(=O)c1ccc(C(=O)NCc2ccccn2)s1)c1csc(-c2ccc(Cl)cc2)c1O [Synthetic Ex. 25, 5-{1-[5-(4-chlorophenyl)-4-hydroxythiophen-3-yl]ethylidenehydrazinocarbonyl]thiophene-2-carboxylic acid 2-picolylamide]
Megakaryocyte colony count (drug concentration 1 μg/mL): 118

CC(=NNC(=O)c1ccc(C(=O)NCc2cccnc2)s1)c1csc(-c2ccc(Cl)cc2)c1O [Synthetic Ex. 26, 5-{1-[5-(4-chlorophenyl)-4-hydroxythiophen-3-yl]ethylidenehydrazinocarbonyl}thiophene-2-carboxylic acid 3-picolylamide]
Megakaryocyte colony count (drug concentration 1 μg/mL): 182
